Results: patent US10087144B2, “Agents for use in the treatment of cardiovascular and inflammatory diseases structurally based on 4(1 H)-quinolone” (UCL Business PLC, priority 2015, dated 2018)

Tests used:
[1] = test system: rat mesenteric artery smooth muscle cells; experiment: Ca2+ flux in response to Angiotensin II in isolated rat mesenteric artery smooth muscle cells (FLIPR); assay type: cell-based; details: inhibition of Angiotensin II (100 nM) Ca2+ flux peak fluorescence; for inhibition at 1 µM / inhibition at 10 µM: Rattus norvegicus; for inhibition at 1 µM: read-out: % inhibition 1 μM; for inhibition at 10 µM: read-out: % inhibition 10 μM
Experimental: Mesenteric artery smooth muscle cells were isolated from male Sprague-Dawley rats (200-250 g). Mesenteric arteries were dissected, cleared of extraneous tissue and incubated in an enzyme solution containing collagenase type I (1 mg/ml), soybean trypsin inhibitor (0.25 mg/ml), bovine albumin (1 mg/ml), CaCl2 (0.2 mM), 100 U/ml penicillin (100 U/ml) and streptomycin (100 μg/ml) in a humidified incubator with 5% CO2 in air. The enzyme solution was replenished at 30 min intervals and cells were pelleted by centrifugation (200 g, 5 min) and differentially plated (×2) for 15 min in Dulbecco's Modified Eagle's Medium (DMEM) supplemented with penicillin (100 U/ml), streptomycin (100 μg/ml), L-Glutamine (2 mM) and 10% heat inactivated New Zealand foetal calf serum. Cells were passaged by trypsinisation and viability determined by trypan blue exclusion.
Measurements of Ca^2+ flux in response to Angiotensin II were conducted using a Fluorescent Imaging Plate Reader (FLIPR; Molecular Devices). Cells were plated at a density of 10,000 cells/well into black, clear-bottomed 96-well plates in DMEM supplemented with penicillin (100 U/ml), streptomycin (100 μg/ml), L-Glutamine (2 mM) and 10% heat inactivated New Zealand foetal calf serum. 24 hrs later the cells were incubated with Fluo-3-AM (4 μM) for 60 min at 37° C. Once dye-loaded, the cells were washed thoroughly with the proprietary assay buffer to remove any unincorporated dye. The cells were then incubated with varying concentrations of a number of representative NPR-C agonist molecules of the invention, C-type natriuretic peptide or vehicle (DMSO) and placed into the FLIPR. After 15 mins, Angiotensin II (100 nM) was automatically dispensed into each well and the fluorescence signal followed for 5 mins. Potency was determined by comparison of the peak fluorescence in each test well (run in triplicate) with that of the control (Angiotensin II alone). Background fluorescence (assay buffer only) was subtracted from all values.

[2] = test system: rat mesenteric arteries; experiment: Vasoreactivity in rat mesenteric arteries in vitro (relaxation of U46619-contracted vessels, tension myograph); details: for inhibition at 1 µM / inhibition at 3 µM / inhibition at 10 µM / inhibition at 30 µM / EC50: Rattus norvegicus; for inhibition at 1 µM / inhibition at 3 µM / inhibition at 10 µM / inhibition at 30 µM / % relaxation 1 μM / % relaxation 3 μM / % relaxation 10 μM / % relaxation 30 μM: U46619-contracted third-order arteries; for EC50: vasorelaxation, calculated from concentration-response curves
Experimental: Male rats (Sprague-Dawley; 200-250 g) were stunned and killed by cervical dislocation. The mesentery was removed and third-order arteries mounted in an automated tension myograph (Danish Myotechnology). After an equilibration period of 45 min, vessels were normalized and diameter determined. Following normalization, each vessel was contracted repeatedly with the thromboxane A2-mimetic 9,11-dideoxy-11^α,9^α-epoxymethano-prostaglandin F2α (U46619; 1 μM) until the response was reproducible. The vessels were then washed to restore basal tone before contracting to approximately 50% of the maximum U46619-induced response. Once a stable response to U46619 was achieved, cumulative concentration-response curves were constructed with a variety of NPR-C agonists of the invention at varying concentrations (0.001-30 μM), or vehicle (DMSO). In some studies, concentration-response curves to NPR-C agonists were conducted in the presence of the NPR-C antagonist M372049 (10 μM). Only one curve to any one agonist was constructed in any single tissue.

O=C(O)c1cn(Cc2ccccc2)c2ccc(Br)cc2c1=O [Compound 27, 1-benzyl-6-bromo-4-oxo-1,4-dihydroquinoline-3-carboxylic acid]
inhibition at 1 µM ([1]; 1 μM compound): 0%
inhibition at 10 µM ([1]; 10 μM compound): 50%

O=C(O)c1c[nH]c2ccccc2c1=O [Compound 57]
% inhibition 1 μM ([1]; 1 μM compound): 0%
% inhibition 10 μM ([1]; 10 μM compound): 35%

C[C@H](NC(=O)c1cn(Cc2ccccc2)c2ccc(Br)cc2c1=O)C(=O)OC(C)(C)C [Compound 59, (S)-tert-butyl 2-(1-benzyl-6-bromo-4-oxo-1,4-dihydroquinoline-3-carboxamido)propanoate]
inhibition at 1 µM ([1]; 1 μM compound): 20%
inhibition at 10 µM ([1]; 10 μM compound): 90%

CC(C)(C)OC(=O)n1cc(C(=O)O)c(=O)c2ccccc21 [Compound 81]
inhibition at 1 µM [2]: 1%
inhibition at 3 µM [2]: 1%
inhibition at 10 µM [2]: 7%
inhibition at 30 µM [2]: 25%

CC(C)C(NC(=O)c1cnc2ccccn2c1=O)C(=O)O (centres unmarked) [Compound 120]
% relaxation 1 μM [2]: 0%
% relaxation 3 μM [2]: 3%
% relaxation 10 μM [2]: 3%
% relaxation 30 μM [2]: 20%

O=C(O)CNC(=O)c1cnc2ccccn2c1=O [Compound 121]
% relaxation 1 μM [2]: 5%
% relaxation 3 μM [2]: 2%
% relaxation 10 μM [2]: 3%
% relaxation 30 μM [2]: 17%

CCn1cc(C(=O)O)c(=O)c2ccc(C)nc21 [Compound 137]
% relaxation 1 μM [2]: 0%
% relaxation 3 μM [2]: 1%
% relaxation 10 μM [2]: 9%
% relaxation 30 μM [2]: 69%

O=C(O)c1cn(Cc2cccc(Cl)c2)c2ccccc2c1=O [Compound 155, 1-(3-Chlorobenzyl)-4-oxo-1,4-dihydroquinoline-3-carboxylic acid]
inhibition at 1 µM [2]: 4%
inhibition at 3 µM [2]: 6%
inhibition at 10 µM [2]: 10%
inhibition at 30 µM [2]: 25%

CCn1cc(C(=O)NCC(=O)O)c(=O)c2ccccc21 [Compound 171, 2-(1-Ethyl-4-oxo-1,4-dihydroquinoline-3-carboxamido)acetic acid]
inhibition at 1 µM [2]: 2%
inhibition at 3 µM [2]: 2%
inhibition at 10 µM [2]: 8%
inhibition at 30 µM [2]: 20%
EC50 [2]: > 50 µM

O=C(O)CNC(=O)c1cn(Cc2cccc(Cl)c2)c2ccccc2c1=O [Compound 172, 2-(1-(3-Chlorobenzyl)-4-oxo-1,4-dihydroquinoline-3-carboxamido)acetic acid]
inhibition at 1 µM [2]: 5%
inhibition at 3 µM [2]: 20%
inhibition at 10 µM [2]: 43%
inhibition at 30 µM [2]: 91%
EC50 [2]: > 50 µM

O=C(O)CNC(=O)c1cn(Cc2ccccc2F)c2ccccc2c1=O [Compound 173, 2-(1-(2-Fluorobenzyl)-4-oxo-1,4-dihydroquinoline-3-carboxamido)acetic acid]
inhibition at 1 µM [2]: 4%
inhibition at 3 µM [2]: 13%
inhibition at 10 µM [2]: 15%
inhibition at 30 µM [2]: 79%
EC50 [2]: > 50 µM

COc1ccc(Cn2cc(C(=O)NCC(=O)O)c(=O)c3ccccc32)cc1 [Compound 174, 2-(1-(4-Methoxybenzyl)-4-oxo-1,4-dihydroquinoline-3-carboxamido)acetic acid]
inhibition at 1 µM [2]: 4%
inhibition at 3 µM [2]: 4%
inhibition at 10 µM [2]: 8%
inhibition at 30 µM [2]: 20%
EC50 [2]: > 50 µM

Cc1cc(C)cc(Cn2cc(C(=O)NCC(=O)O)c(=O)c3ccccc32)c1 [Compound 175, 2-(1-(3.5-Dimethylbenzyl)-4-oxo-1,4-dihydroquinoline-3-carboxamido)acetic acid]
inhibition at 1 µM [2]: 8%
inhibition at 3 µM [2]: 8%
inhibition at 10 µM [2]: 12%
inhibition at 30 µM [2]: 88%
EC50 [2]: > 50 µM

O=C(O)CNC(=O)c1cn(Cc2ccc(OC(F)(F)F)cc2)c2ccccc2c1=O [Compound 176, 2-(4-Oxo-1-(4-(trifluoromethoxy)benzyl)-1,4-dihydroquinoline-3-carboxamido)acetic acid]
inhibition at 1 µM [2]: 8%
inhibition at 3 µM [2]: 9%
inhibition at 10 µM [2]: 17%
inhibition at 30 µM [2]: 91%
EC50 [2]: > 50 µM

O=C(O)CNC(=O)c1cn(Cc2ccccc2Cl)c2ccccc2c1=O [Compound 177, 2-(1-(2-Chlorobenzyl)-4-oxo-1,4-dihydroquinoline-3-carboxyamido)acetic acid]
inhibition at 1 µM [2]: 1%
inhibition at 3 µM [2]: 3%
inhibition at 10 µM [2]: 6%
inhibition at 30 µM [2]: 52%
EC50 [2]: > 50 µM

O=C(O)CNC(=O)c1c[nH]c2ccccc2c1=O [Compound 178, 2-(4-Oxo-1,4-dihydroquinoline-3-carboxamido)acetic acid]
inhibition at 1 µM [2]: 5%
inhibition at 3 µM [2]: 6%
inhibition at 10 µM [2]: 11%
inhibition at 30 µM [2]: 16%
EC50 [2]: 17.4 µM

O=C(N[C@@H](Cc1ccccc1)C(=O)O)c1cn(Cc2ccccc2)c2ccc(Br)cc2c1=O [Compound 187, (S)-2-(1-benzyl-6-bromo-4-oxo-1,4-dihydroquinoline-3-carboxamido)-3-phenylpropanoic acid]
inhibition at 1 µM [2]: 31%
inhibition at 3 µM [2]: 57%
inhibition at 10 µM [2]: 93%
inhibition at 30 µM [2]: 100%
EC50 [2]: 1.6 µM

CC(C)C[C@H](NC(=O)c1cn(Cc2ccccc2)c2ccc(Br)cc2c1=O)C(=O)O [Compound 188, (S)-2-(1-benzyl-6-bromo-4-oxo-1,4-dihydroquinoline-3-carboxamido)-4-methylpentanoic acid]
inhibition at 1 µM [2]: 4%
inhibition at 3 µM [2]: 3%
inhibition at 10 µM [2]: 2%
inhibition at 30 µM [2]: 87%
EC50 [2]: > 50 µM

C[C@H](NC(=O)c1cn(Cc2ccccc2)c2ccc(Br)cc2c1=O)C(=O)O [Compound 189, (S)-2-(1-benzyl-6-bromo-4-oxo-1,4-dihydroquinoline-3-carboxamido)propanoic acid]
inhibition at 1 µM [2]: 4%
inhibition at 3 µM [2]: 12%
inhibition at 10 µM [2]: 64%
inhibition at 30 µM [2]: 84%

O=C(N[C@@H](Cc1ccccc1)C(=O)O)c1cn(Cc2ccccc2)c2ccccc2c1=O [Compound 200, (S)-2-(1-benzyl-4-oxo-1,4-dihydroquinoline-3-carboxamido)-3-phenylpropanoic acid]
inhibition at 1 µM [2]: 4%
inhibition at 3 µM [2]: 10%
inhibition at 10 µM [2]: 67%
inhibition at 30 µM [2]: 89%
EC50 [2]: > 50 µM

CC(C)C[C@H](NC(=O)c1cn(Cc2ccccc2)c2ccccc2c1=O)C(=O)O [Compound 201, (S)-2-(1-benzyl-4-oxo-1,4-dihydroquinoline-3-carboxamido)-4-methylpentanoic acid]
inhibition at 1 µM [2]: 0%
inhibition at 3 µM [2]: 0%
inhibition at 10 µM [2]: 0%
inhibition at 30 µM [2]: 82%
EC50 [2]: > 50 µM

C[C@H](NC(=O)c1cn(Cc2ccccc2)c2ccccc2c1=O)C(=O)O [Compound 202, (S)-2-(1-benzyl-4-oxo-1,4-dihydroquinoline-3-carboxamido)-2-methylethanoic acid]
inhibition at 1 µM [2]: 2%
inhibition at 3 µM [2]: 3%
inhibition at 10 µM [2]: 20%
inhibition at 30 µM [2]: 36%
EC50 [2]: 20.3 µM

CC(NC(=O)c1cnc2ccccn2c1=O)C(=O)O (centres unmarked) [Compound 203]
% relaxation 1 μM [2]: 7%
% relaxation 3 μM [2]: 6%
% relaxation 10 μM [2]: 28%
% relaxation 30 μM [2]: 50%

CC(C)CC(NC(=O)c1cnc2ccccn2c1=O)C(=O)O (centres unmarked) [Compound 204]
% relaxation 1 μM [2]: 9%
% relaxation 3 μM [2]: 18%
% relaxation 10 μM [2]: 30%
% relaxation 30 μM [2]: 92%

O=C(NC(Cc1ccccc1)C(=O)O)c1cnc2ccccn2c1=O (centres unmarked) [Compound 205]
% relaxation 1 μM [2]: −9%
% relaxation 3 μM [2]: 13%
% relaxation 10 μM [2]: 13%
% relaxation 30 μM [2]: 14%
